Laboratory results from ChEMBL document CHEMBL4190309, “Synthesis, antimicrobial, DNA cleavage and antioxidant activities of tricyclic sultams derived from saccharin” (Eur J Med Chem, 2017).
In brackets after ≈: the same amount, converted by molar mass. Activity calls are given as the source filed them. The calls are words filed in the database; no cut-off is given here.

Tests used:
Pseudomonas aeruginosa [1] = test: Antibacterial activity against Pseudomonas aeruginosa ATCC 27853 assessed as diameter of inhibition zone at 100 uM after 24 hrs by cup diffusion method; assay type: functional; details: ATCC 27853, 24 h, read-out: DIZ
Staphylococcus aureus [2] = test: Antibacterial activity against Staphylococcus aureus ATCC 25923 assessed as diameter of inhibition zone at 100 uM after 24 hrs by cup diffusion method; assay type: functional; details: ATCC 25923, 24 h, read-out: DIZ
DNA [3] = test: Induction of Escherichia coli DNA cleavage at 10 to 12 uM after 1 hr by […] staining-based agarose gel electrophoresis; assay type: nucleic-acid assay
Staphylococcus aureus [4] = test: Antibacterial activity against Staphylococcus aureus ATCC 25923 after 24 hrs by serial dilution method; assay type: functional; details: ATCC 25923, 24 h
DNA [5] = test: Induction of Escherichia coli DNA cleavage at 2 uM after 1 hr by […] staining-based agarose gel electrophoresis; assay type: nucleic-acid assay
Escherichia coli [6] = test: Antibacterial activity against Escherichia coli ATCC 25922 after 24 hrs by serial dilution method; assay type: functional; details: ATCC 25922, 24 h
[7] = Antioxidant activity assessed as ABTS radical scavenging activity at 2 uM by spectrophotometric analysis; assay type: functional
Pseudomonas aeruginosa [8] = test: Antibacterial activity against Pseudomonas aeruginosa ATCC 27853 after 24 hrs by serial dilution method; assay type: functional; details: ATCC 27853, 24 h
DNA [9] = test: Induction of Escherichia coli DNA cleavage at 8 uM after 1 hr by […] staining-based agarose gel electrophoresis; assay type: nucleic-acid assay
[10] = Antiproliferative activity against hepatic cancer cells (unknown origin) at 50 uM by MTT assay relative to control; assay type: functional
[11] = Antioxidant activity assessed as superoxide anion scavenging activity at 2 uM at pH 8.3 by NBT/NADH/PMS assay relative to control; assay type: functional
[12] = Antioxidant activity assessed as superoxide anion scavenging activity at pH 8.3 by NBT/NADH/PMS assay; assay type: functional
Priestia megaterium = test: Antibacterial activity against Bacillus megaterium ATCC 14591 assessed as diameter of inhibition zone at 100 uM after 24 hrs by cup diffusion method; assay type: functional; details: ATCC 14591, 24 h, read-out: DIZ
DNA [13] = test: Induction of Escherichia coli DNA cleavage after 1 hr by […] staining-based agarose gel electrophoresis; assay type: nucleic-acid assay
Escherichia coli [14] = test: Antibacterial activity against Escherichia coli ATCC 25922 assessed as diameter of inhibition zone at 100 uM after 24 hrs by cup diffusion method; assay type: functional; details: ATCC 25922, 24 h, read-out: DIZ
DNA [15] = test: Induction of Escherichia coli DNA cleavage at 6 uM after 1 hr by […] staining-based agarose gel electrophoresis; assay type: nucleic-acid assay
DNA [16] = test: Induction of Escherichia coli DNA cleavage at 4 uM after 1 hr by […] staining-based agarose gel electrophoresis; assay type: nucleic-acid assay

Compound | Activity (DNA [3]) | MIC (Staphylococcus aureus [4]) [µg/mL] | Activity (DNA [5]) | MIC (Escherichia coli [6]) [µg/mL] | MIC (Pseudomonas aeruginosa [8]) [µg/mL] | Activity (DNA [9]) | IC50 [12] [nM] | Activity (DNA [13]) | Activity (DNA [15]) | Activity (DNA [16]) | zone of inhibition at 100 µM (Pseudomonas aeruginosa [1]) [mm] | zone of inhibition at 100 µM (Staphylococcus aureus [2]) [mm] | Activity [7] [%] | Activity [10] [%] | Activity [11] [%] | Activity [12] | zone of inhibition at 100 µM (Priestia megaterium) [mm] | zone of inhibition at 100 µM (Escherichia coli [14]) [mm]
Cc1ccccc1NC(=O)C1=C2c3ccccc3S(=O)(=O)N2CC1 | Active | 12 (≈ 35.3 µM) | inactive | 11 (≈ 32.3 µM) | 17 (≈ 49.9 µM) | – | 1620 | Dose-dependent effect | Active | Active | 18 | 19 | 62.5 | 49.6 | 61.7 | Dose-dependent effect | 20 | 17
O=C(Nc1ccccc1)C1=C2c3ccccc3S(=O)(=O)N2CC1 | Active | 16 (≈ 49 µM) | inactive | 21 (≈ 64.3 µM) | 28 (≈ 85.8 µM) | – | 2230 | Dose-dependent effect | – | – | 12 | 14 | 46.9 | 58.6 | 44.8 | Dose-dependent effect | 12 | 13
CC1(C)S[C@@H]2[C@H](NC(=O)[C@H](N)c3ccccc3)C(=O)N2[C@H]1C(=O)O [AMPICILLIN] | – | – | – | – | – | – | – | – | – | – | 20 | 23 | – | – | – | – | 21 | 19
O=C(Nc1ccc([N+](=O)[O-])cc1)C1=C2c3ccccc3S(=O)(=O)N2CC1 | Active | 18 (≈ 48.5 µM) | inactive | 24 (≈ 64.6 µM) | 19 (≈ 51.2 µM) | Active | 1950 | Dose-dependent effect | – | – | 14 | 12 | 54.7 | 56.6 | 51.2 | Dose-dependent effect | 11 | 13
CN[C@H](CC(C)C)C(=O)N[C@H]1C(=O)N[C@@H](CC(N)=O)C(=O)N[C@H]2C(=O)N[C@H]3C(=O)N[C@H](C(=O)N[C@H](C(=O)O)c4cc(O)cc(O)c4-c4cc3ccc4O)[C@H](O)c3ccc(c(Cl)c3)Oc3cc2cc(c3O[C@@H]2O[C@H](CO)[C@@H](O)[C@H](O)[C@H]2O[C@H]2C[C@](C)(N)[C@H](O)[C@H](C)O2)Oc2ccc(cc2Cl)[C@H]1O [VANCOMYCIN] | – | 14 (≈ 9.66 µM) | – | – | – | – | – | – | – | – | – | – | – | – | – | – | – | –

Now from value to compound, other results behind:

Activity (DNA [3]) | MIC (Staphylococcus aureus [4]) [µg/mL] | Activity (DNA [5]) | MIC (Escherichia coli [6]) [µg/mL] | MIC (Pseudomonas aeruginosa [8]) [µg/mL] | Activity (DNA [9]) | IC50 [12] [nM] | Activity (DNA [13]) | Activity (DNA [15]) | Activity (DNA [16]) | Compound | zone of inhibition at 100 µM (Pseudomonas aeruginosa [1]) [mm] | zone of inhibition at 100 µM (Staphylococcus aureus [2]) [mm] | Activity [7] [%] | Activity [10] [%] | Activity [11] [%] | Activity [12] | zone of inhibition at 100 µM (Priestia megaterium) [mm] | zone of inhibition at 100 µM (Escherichia coli [14]) [mm]
Active | 22 (≈ 61.7 µM) | inactive | 22 (≈ 61.7 µM) | 33 (≈ 92.6 µM) | Active | 2020 | Dose-dependent effect | – | – | COc1ccc(NC(=O)C2=C3c4ccccc4S(=O)(=O)N3CC2)cc1 | 14 | 16 | 48.2 | 61 | 49.4 | Dose-dependent effect | 13 | 15
Active | 18 (≈ 46.5 µM) | inactive | 23 (≈ 59.4 µM) | 27 (≈ 69.7 µM) | Active | 1660 | Dose-dependent effect | Active | – | CC1(C)[C@H]2CC[C@]1(C)[C@H](OC(=O)C1=C3c4ccccc4S(=O)(=O)N3CC1)C2 | 14 | 18 | 62.7 | 63 | 60.1 | Dose-dependent effect | 17 | 16
Active | 8 (≈ 25.5 µM) | inactive | 21 (≈ 66.9 µM) | 20 (≈ 63.7 µM) | Active | 1580 | Dose-dependent effect | Active | Active | O=C(OCCCl)C1=C2c3ccccc3S(=O)(=O)N2CC1 | 18 | 20 | 64.8 | 59.6 | 63.1 | Dose-dependent effect | 20 | 17
Active | 15 (≈ 56.5 µM) | inactive | 15 (≈ 56.5 µM) | 14 (≈ 52.8 µM) | Active | 1680 | Dose-dependent effect | Active | – | COC(=O)C1=C2c3ccccc3S(=O)(=O)N2CC1 | 16 | 20 | 63.8 | 36.6 | 59.4 | Dose-dependent effect | 19 | 17
Active | 24 (≈ 61.6 µM) | inactive | 33 (≈ 84.7 µM) | 25 (≈ 64.2 µM) | Active | 1710 | Dose-dependent effect | Active | Active | CC(C)[C@@H]1CC[C@@H](C)C[C@H]1OC(=O)C1=C2c3ccccc3S(=O)(=O)N2CC1 | 18 | 19 | 60.3 | 70.2 | 58.6 | Dose-dependent effect | 18 | 17
Active | 14 (≈ 50.1 µM) | inactive | 18 (≈ 64.4 µM) | 15 (≈ 53.7 µM) | Active | 2070 | Dose-dependent effect | – | – | CCOC(=O)C1=C2c3ccccc3S(=O)(=O)N2CC1 | 14 | 17 | 46.7 | 19.6 | 48.3 | Dose-dependent effect | 16 | 16
